System: C. violaceum CV026
Assay: Preliminary screening of bacterial quorum sensing regulatory (agonistic/inhibitory) activity on LB plate
Type: cell-based, Chromobacterium violaceum
Conditions: 1 μl of 0.065M DMSO solution spotted on LB plate with C. violaceum CV026, 30° C., 16-18 h; agonist: purple induced; inhibitor: white circle in presence of inducer C6-HSL
Procedure: 1.1 Preparation work: compounds to be tested (Compounds 1-32 prepared in Example 1-32 and Intermediates 1-3) were weighed and then separately dissolved in 200 μl DMSO (dimethyl sulfoxide) to prepare a solution at a concentration of 0.065M. 5.0 mg inducer, N-hexanoyl homoserine lactone (C6—HSL, purchased from Sigma Company) was weighed and dissolved in 200 μl DMSO (at a concentration of 0.125M), the compounds and the inducer were all stored at 4° C. for further use. C. violaceum CV026 (donated by Professor McLean J C from Texas State University, the bacterium is the Tn-5 mutant of the wild type Chromobacterium violaceum ATCC31532; see Latifi, A., et al., Mol. Microbiol, 17, 333-343(1995) and Winson, M. K., et al., Proc. Natl. Acad. Sci. USA, 92, 9427-9431(1995)) was cultured under shaking in a shaker at 30° C., 200 rpm.
1.2 Method for preliminary screening of compounds having agonistic activity: 400 μl C. violaceum CV026 was added to 5 ml melted semi-solid LB culture medium (1% tryptone, 1% NaCl, and 0.5% yeast extract), and mixed homogeneously; the mixed culture medium was poured into a solid LB plate; when the mixed culture medium was solidified on the plate; 1 μl sample of the dissolved compound to be tested (Compounds 1-32 in Examples 1-32) was spotted on the plate; when the sample was dried in air, the plate was put in a 30° C. oven upside down and cultured for a period of 16-18 h. The agonistic activity of the compound was determined depending on whether purple strain was induced for C. violaceum CV026 on LB plate as well as the density of purple strain.
1.3 Method for preliminary screening of compounds having inhibitory activity: the inducer C6-HSL was diluted gradiently to 1000 times by means of 2-fold dilution; 15 μl of the diluted inducer and 400 μl C. violaceum CV026 in exponential phase were mixed homogeneously and then added to a 5 ml melted semi-solid LB culture medium; the mixture of inducer, C. violaceum, and semi-solid LB culture medium were poured onto a solid LB plate; when the mixture was solidified on the plate, 1 μl sample of the dissolved compound to be tested (Compounds 1-32 in Examples 1-32 and Intermediates 1-3) was spotted on the plate; when the sample was dried in air, the plate was put in a 30° C. oven upside down and was cultured for a period of 16-18 h. The inhibitory activity of a compound was preliminary determined depending on the size of the white circle appeared after C. violaceum CV026 was inhibited on LB plate.
It is found, after preliminary screening, that 17 compounds according to the invention have bacterial quorum sensing regulatory activity, and the screening result was shown in Table 1.

Structure (SMILES) | Regulatory activity (bacterial quorum sensing)
O=C(Nc1ccc(S(=O)(=O)N[C@H]2CCOC2=O)cc1)c1ccc([N+](=O)[O-])o1 [Compound 13, (s)-5-nitro-N-(4-(N-(2-oxotetrahydrofuran-3-yl)sulfamoyl)phenyl)furan-2-carboxamide] | −
O=C(Nc1ccc(S(=O)(=O)N[C@H]2CCOC2=O)cc1)c1sccc1Br [Compound 10, (s)-3-bromo-N-(4-(N-(2-oxotetrahydrofuran-3-yl)sulfamoyl)phenyl)thiophene-2-carboxamide] | −
Cc1ccsc1C(=O)Nc1ccc(S(=O)(=O)N[C@H]2CCOC2=O)cc1 [Compound 8, (s)-3-methyl-N-(4-(N-(2-oxotetrahydrofuran-3-yl)sulfamoyl)phenyl)thiophene-2-carboxamide] | −
O=C(Nc1ccc(S(=O)(=O)N[C@H]2CCOC2=O)cc1)c1ccco1 [Compound 11, (s)-N-(4-(N-(2-oxotetrahydrofuran-3-yl)sulfamoyl)phenyl)furan-2-carboxamide] | ±
CC(=O)Nc1ccc(S(=O)(=O)N[C@H]2CCOC2=O)cc1 [Intermediate 2, (s)-N-(4-(N-(2-oxotetrahydrofuran-3-yl)sulfamoyl)phenyl)acetamide] | −
O=C(Nc1ccc(S(=O)(=O)N[C@H]2CCOC2=O)cc1)c1sccc1Cl [Compound 9, (s)-3-chloro-N-(4-(N-(2-oxotetrahydrofuran-3-yl)sulfamoyl)phenyl)thiophene-2-carb oxamide] | −
Br.NC1CCOC1=O (stereo not shown) [Intermediate 1, (L)-homoserine lactone hydrobromide] | +
O=C(Cc1ccc(F)cc1)Nc1ccc(S(=O)(=O)N[C@H]2CCOC2=O)cc1 [Compound 20, (S)-4-fluoro-N-(4-(N-(2-oxotetrahydrofuran-3-yl)sulfamoyl)phenyl)benzeneacetamide] | −
O=C(Nc1ccc(S(=O)(=O)N[C@H]2CCOC2=O)cc1)c1ccsc1 [Compound 2, (s)-N-(4-(N-(2-oxotetrahydrofuran-3-yl)sulfamoyl)phenyl)thiophene-3-carboxamide] | −
O=C(Nc1ccc(S(=O)(=O)NC2CCOC2=O)cc1)c1ccc[nH]1 (stereo not shown) [Compound 17, (s)-1H—N-(4-(N-(2-oxotetrahydrofuran-3-yl)sulfamoyl)phenyl)pyrrole-2-carboxamide] | −
O=C(Nc1ccc(S(=O)(=O)N[C@H]2CCOC2=O)cc1)c1ccc(Cl)s1 [Compound 3, (s)-5-chloro-N-(4-(N-(2-oxotetrahydrofuran-3-yl)sulfamoyl)phenyl)thiophene-2-carb oxamide] | −
Cc1csc(C(=O)Nc2ccc(S(=O)(=O)N[C@H]3CCOC3=O)cc2)c1 [Compound 7, (s)-4-methyl-N-(4-(N-(2-oxotetrahydrofuran-3-yl)sulfamoyl)phenyl)thiophene-2-carboxamide] | −
O=C(Cc1ccc(Cl)cc1)Nc1ccc(S(=O)(=O)N[C@H]2CCOC2=O)cc1 [Compound 21, (S)-4-chloro-N-(4-(N-(2-oxotetrahydrofuran-3-yl)sulfamoyl)phenyl)benzeneacetamide] | −
O=C(Nc1ccc(S(=O)(=O)N[C@H]2CCOC2=O)cc1)c1ccoc1 [Compound 12, (s)-N-(4-(N-(2-oxotetrahydrofuran-3-yl)sulfamoyl)phenyl)furan-3-carboxamide] | −
O=C(Nc1ccc(S(=O)(=O)N[C@H]2CCOC2=O)cc1)c1ccc(Br)s1 [Compound 4, (s)-5-bromo-N-(4-(N-(2-oxotetrahydrofuran-3-yl)sulfamoyl)phenyl)thiophene-2-carb oxamide] | −
O=C(Nc1ccc(S(=O)(=O)N[C@H]2CCOC2=O)cc1)c1cc(Br)cs1 [Compound 6, (s)-4-bromo-N-(4-(N-(2-oxotetrahydrofuran-3-yl)sulfamoyl)phenyl)thiophene-2-carb oxamide] | −
O=C(Cc1ccccc1F)Nc1ccc(S(=O)(=O)N[C@H]2CCOC2=O)cc1 [Compound 27, (S)-2-fluoro-N-(4-(N-(2-oxotetrahydrofuran-3-yl)sulfamoyl)phenyl)benzeneacetamide] | +
O=C(Nc1ccc(S(=O)(=O)N[C@H]2CCOC2=O)cc1)c1cccs1 [Compound 1, (s)-N-(4-(N-(2-oxotetrahydrofuran-3-yl)sulfamoyl)phenyl)thiophene-2-carboxamide] | −
Cc1occc1C(=O)Nc1ccc(S(=O)(=O)N[C@H]2CCOC2=O)cc1 [Compound 15, (s)-2-methyl-N-(4-(N-(2-oxotetrahydrofuran-3-yl)sulfamoyl)phenyl)furan-3-carboxamide] | −

System: C. violaceum CV026
Assay: Measurement of IC50 of compounds having an inhibitory effect on C. violaceum quorum sensing (purple pigment absorbance at 585 nm)
Type: cell-based
Conditions: Chromobacterium violaceum, CV026, read-out: IC50 of compounds having bacterial quorum sensing inhibitory activity
Procedure: 2. Measurement of IC50 of Compounds Having an Inhibitory Effect on C. violaceum Quorum Sensing
2.1 The wells of a 12-well plate were marked as initial concentration group, 2, 4, 8, 16, 32, 64, 128, and 256 fold diluted group, DMSO group, and a blank control group from left to right and from up to bottom, respectively.
2.2 The monoclonal C. violaceum CV026 grew on LB solid plate was cultured to exponential phase in a 5 ml fresh LB liquid culture medium, and 50 μl was then taken for seeding in a 5 ml LB culture medium, and cultured until the optical density OD value was about 1.0. The culture was then mixed homogeneously with LB culture medium at a ratio of 1:9 (at an OD of about 0.15), and added to a 12-well plate in an amount of 2 ml/well.
2.3 The compounds having quorum sensing inhibitory activity in preliminarily screening were dissolved in DMSO (at a concentration of 0.065M), respectively, and then 10 μl was taken into 10 μl DMSO solution for 2-fold dilution, and so on. Each compound was gradiently diluted to a highest fold of 256 (gradient dilution of 2, 4, 8, 16, 32, 64, 128, 256 fold).
2.4 To each well, 15 μl 1000-fold diluted inducer C6-HSL (initial concentration of 0.125M) and 8 μl compound solution at each diluted gradient was added; to the DMSO group, 8 μl DMSO was added; to the blank control group, 8 μl LB culture medium was added. Finally, it was ensured that 2 ml culture in each of the 12-well plate was mixed homogeneously.
2.5 The 12-well plate was placed in a 30° C. shaker at 130 rpm and cultured for 10-12 h.
2.6 After the culture was finished, 1 ml culture was taken from each well and put in a 1.5 ml EP tube and then centrifuged at 12000 rpm for 10 mins. The supernatant of the culture was sucked out, and 500 μl DMSO was added to each EP tube to dissolve the purple pigment in the culture. […] 200 μl supernatant pigment was put in a 96-well culture plate, and measured for absorbance value at 585 nm by a Microplate Reader. The absorbance value and the corresponding concentration were plotted to get the IC50 value.

Structure (SMILES) | IC50
O=C(Nc1ccc(S(=O)(=O)N[C@H]2CCOC2=O)cc1)c1sccc1Br [Compound 10, (s)-3-bromo-N-(4-(N-(2-oxotetrahydrofuran-3-yl)sulfamoyl)phenyl)thiophene-2-carboxamide] | 13.5 ± 0.54 µM
Cc1ccsc1C(=O)Nc1ccc(S(=O)(=O)N[C@H]2CCOC2=O)cc1 [Compound 8, (s)-3-methyl-N-(4-(N-(2-oxotetrahydrofuran-3-yl)sulfamoyl)phenyl)thiophene-2-carboxamide] | 69.2 ± 1.42 µM
O=C(Nc1ccc(S(=O)(=O)N[C@H]2CCOC2=O)cc1)c1sccc1Cl [Compound 9, (s)-3-chloro-N-(4-(N-(2-oxotetrahydrofuran-3-yl)sulfamoyl)phenyl)thiophene-2-carb oxamide] | 9.19 ± 0.34 µM

Reference: US10071994B2, “N-sulfonyl homoserine lactone derivatives, preparation method and use thereof” (priority 2014, dated 2018)
